“Also recorded” adds a separate entry of the source. Like-named read-outs stand apart in the source and are kept apart here.
What was measured:
D1 dopamine receptor = D1 dopamine receptor (Homo sapiens, UniProt P21728); experiment: BRET-based G protein dissociation assay; format: cell-based
D2 dopamine receptor = D2 dopamine receptor (Homo sapiens, UniProt P14416); experiment: BRET-based G protein dissociation assay; format: cell-based
D3 dopamine receptor = D3 dopamine receptor (Homo sapiens, UniProt P35462); experiment: BRET-based G protein dissociation assay; format: cell-based
Sequence of D3 dopamine receptor (P35462 whole entry): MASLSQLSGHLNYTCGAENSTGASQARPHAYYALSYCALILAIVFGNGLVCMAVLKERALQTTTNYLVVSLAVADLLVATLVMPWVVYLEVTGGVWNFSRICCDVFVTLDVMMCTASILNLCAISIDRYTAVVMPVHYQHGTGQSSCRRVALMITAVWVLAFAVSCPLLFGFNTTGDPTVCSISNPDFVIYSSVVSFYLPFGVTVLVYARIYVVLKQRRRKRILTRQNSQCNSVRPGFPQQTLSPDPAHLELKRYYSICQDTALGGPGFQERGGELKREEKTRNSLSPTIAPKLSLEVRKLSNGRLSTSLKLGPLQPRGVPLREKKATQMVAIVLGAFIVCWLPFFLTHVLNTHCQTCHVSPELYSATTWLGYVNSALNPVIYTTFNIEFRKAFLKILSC

D5 dopamine receptor = D5 dopamine receptor (Homo sapiens, UniProt P21918); experiment: BRET-based G protein dissociation assay; format: cell-based
Sequence of D5 dopamine receptor (P21918 whole entry): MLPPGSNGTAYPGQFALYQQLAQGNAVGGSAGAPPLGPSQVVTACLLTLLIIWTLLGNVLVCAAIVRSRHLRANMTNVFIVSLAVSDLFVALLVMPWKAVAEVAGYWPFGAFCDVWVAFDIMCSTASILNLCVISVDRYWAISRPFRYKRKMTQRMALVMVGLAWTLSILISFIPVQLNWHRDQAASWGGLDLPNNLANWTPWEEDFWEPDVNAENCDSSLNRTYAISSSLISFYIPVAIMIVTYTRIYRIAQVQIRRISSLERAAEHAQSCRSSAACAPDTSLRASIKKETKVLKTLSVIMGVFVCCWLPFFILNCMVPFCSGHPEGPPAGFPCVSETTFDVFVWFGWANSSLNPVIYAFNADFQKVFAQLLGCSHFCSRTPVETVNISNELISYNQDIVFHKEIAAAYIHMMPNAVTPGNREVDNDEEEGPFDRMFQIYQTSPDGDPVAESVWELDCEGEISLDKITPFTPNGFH

[1] = target: T1, ADRa1A (α1A adrenergic receptor) (Homo sapiens, UniProt P35348); experiment: BRET-based G protein dissociation assay; format: cell-based
T1 sequence (P35348 1-466): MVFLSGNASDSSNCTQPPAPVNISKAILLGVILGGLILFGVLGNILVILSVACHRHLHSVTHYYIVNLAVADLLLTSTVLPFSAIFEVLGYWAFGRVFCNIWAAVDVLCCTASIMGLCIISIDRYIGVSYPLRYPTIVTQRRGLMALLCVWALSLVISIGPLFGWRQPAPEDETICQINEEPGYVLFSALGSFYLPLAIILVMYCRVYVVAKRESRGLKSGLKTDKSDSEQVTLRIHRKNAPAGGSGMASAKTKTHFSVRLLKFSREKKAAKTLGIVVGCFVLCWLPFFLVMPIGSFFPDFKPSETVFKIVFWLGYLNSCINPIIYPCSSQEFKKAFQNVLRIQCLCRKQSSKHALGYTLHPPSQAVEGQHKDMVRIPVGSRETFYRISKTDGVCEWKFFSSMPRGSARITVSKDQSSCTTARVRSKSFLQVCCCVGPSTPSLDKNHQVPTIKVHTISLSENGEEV

[2] = target: H2 histaminergic receptor (Homo sapiens, UniProt P25021); experiment: BRET-based G protein dissociation assay; format: cell-based
Sequence of H2 histaminergic receptor (P25021 whole entry): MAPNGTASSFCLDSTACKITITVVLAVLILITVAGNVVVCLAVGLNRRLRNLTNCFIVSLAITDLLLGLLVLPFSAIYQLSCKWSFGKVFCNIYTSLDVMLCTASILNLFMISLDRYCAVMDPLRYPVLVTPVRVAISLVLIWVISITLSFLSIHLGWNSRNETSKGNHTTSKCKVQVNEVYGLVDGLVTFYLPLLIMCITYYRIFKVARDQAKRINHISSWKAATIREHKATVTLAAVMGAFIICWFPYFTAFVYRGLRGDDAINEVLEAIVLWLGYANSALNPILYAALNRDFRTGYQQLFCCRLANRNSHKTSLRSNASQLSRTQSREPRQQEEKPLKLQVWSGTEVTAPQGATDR

[3] = target: CHRM1 (M1 muscarinic receptor) (Homo sapiens, UniProt P11229); experiment: BRET-based G protein dissociation assay; format: cell-based
Sequence of CHRM1 (M1 muscarinic receptor) (P11229 whole entry): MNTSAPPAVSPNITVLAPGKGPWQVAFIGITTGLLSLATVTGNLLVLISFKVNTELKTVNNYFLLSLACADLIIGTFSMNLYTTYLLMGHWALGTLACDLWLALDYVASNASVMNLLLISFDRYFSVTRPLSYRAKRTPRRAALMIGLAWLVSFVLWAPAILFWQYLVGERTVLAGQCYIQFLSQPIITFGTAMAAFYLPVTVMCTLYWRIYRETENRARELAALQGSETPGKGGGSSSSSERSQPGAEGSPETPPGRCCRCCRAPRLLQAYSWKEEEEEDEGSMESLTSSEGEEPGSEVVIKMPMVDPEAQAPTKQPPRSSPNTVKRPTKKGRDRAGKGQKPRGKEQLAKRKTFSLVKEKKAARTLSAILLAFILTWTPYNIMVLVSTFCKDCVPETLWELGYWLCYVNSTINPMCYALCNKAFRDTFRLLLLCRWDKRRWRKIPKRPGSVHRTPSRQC

[4] = target: T2, CHRM4 (M4 muscarinic receptor) (Homo sapiens, UniProt P08173); experiment: BRET-based G protein dissociation assay; format: cell-based
T2 sequence (P08173 1-479): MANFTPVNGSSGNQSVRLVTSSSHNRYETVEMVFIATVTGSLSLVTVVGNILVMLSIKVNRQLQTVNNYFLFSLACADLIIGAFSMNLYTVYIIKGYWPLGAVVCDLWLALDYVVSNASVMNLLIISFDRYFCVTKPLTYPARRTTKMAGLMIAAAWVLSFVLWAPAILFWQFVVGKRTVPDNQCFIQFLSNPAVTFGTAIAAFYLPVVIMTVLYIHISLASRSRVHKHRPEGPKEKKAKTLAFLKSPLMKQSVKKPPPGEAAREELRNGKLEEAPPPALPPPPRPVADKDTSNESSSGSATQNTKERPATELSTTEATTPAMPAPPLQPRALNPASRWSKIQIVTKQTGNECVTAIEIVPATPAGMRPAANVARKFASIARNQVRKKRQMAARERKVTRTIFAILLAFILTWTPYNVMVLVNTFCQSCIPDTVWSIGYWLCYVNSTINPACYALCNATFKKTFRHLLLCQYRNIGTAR

[5] = target: CHRM5 (M5 muscarinic receptor) (Homo sapiens, UniProt P08912); experiment: BRET-based G protein dissociation assay; format: cell-based
male C57BL/6J mice = experiment: Head-twitch response (HTR) mouse model; format: in vivo
Method: The HTR mouse model is widely used as a proxy behavioral assay for hallucinogenic activity in humans [Halbertstad et al., Neuropharmacology, 2020, V167: 107933; Halberstadt et. al., Psychopharmacology (Berl). 2013, 227(4):727-39].
The magnet implants mounting and magnetometer assessments were conducted as described previously (Halberstadt et al., Psychopharmacology (Berl). 2013 227(4): 727-739). Data are represented as group means±standard deviation for the entire 60 minutes test session (FIG. 10A) and individual data points per 2 minutes blocks (FIG. 10B). Asterisks indicate statistical significances compared to the control (0 mg/kg).

5-HT2B receptor = target: T3, 5-HT2B receptor (Homo sapiens, UniProt P41595); experiment: 5-HT2B Gq dissociation, β-arrestin2 recruitment and Gq-mediated calcium flux in HEK293T cells; format: cell-based
T3 construct: expressed in transfected cells; host or cells: HEK293T; Flp-In 293 T-Rex (calcium flux)
T3 sequence (P41595 whole entry): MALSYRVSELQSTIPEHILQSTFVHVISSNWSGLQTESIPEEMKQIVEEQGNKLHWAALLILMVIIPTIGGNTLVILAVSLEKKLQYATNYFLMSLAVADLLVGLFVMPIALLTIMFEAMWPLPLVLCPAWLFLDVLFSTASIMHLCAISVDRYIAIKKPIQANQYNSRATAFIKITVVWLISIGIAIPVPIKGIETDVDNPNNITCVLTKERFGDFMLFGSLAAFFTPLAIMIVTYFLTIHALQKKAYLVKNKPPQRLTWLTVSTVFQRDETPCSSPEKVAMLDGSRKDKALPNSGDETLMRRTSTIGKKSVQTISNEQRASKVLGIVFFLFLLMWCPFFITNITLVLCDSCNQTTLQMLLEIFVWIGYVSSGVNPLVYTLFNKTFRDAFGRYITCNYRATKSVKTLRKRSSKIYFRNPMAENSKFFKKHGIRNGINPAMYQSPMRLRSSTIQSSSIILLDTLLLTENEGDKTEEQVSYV
Method: The activity of the “E559 polymorph” at the 5-HT2B receptor was further assessed by 5-HT2B-mediated Gq dissociation (FIG. 14A), 5-HT2B-mediated 0-arrestin2 recruitment (FIG. 14B) and 5-HT2B Gq-mediated calcium flux assessments (FIG. 14C) using bioluminescence resonance energy transfer (BRET) assay in HEK293T cells FIG. 14A to C, 5-HT refers to serotonin). […] In 5-HT2B antagonist assays, the “E559 polymorph” antagonism was measured by its ability to block 5-HT2B receptor activation by 5-HT.

5-HT4 receptor = target: T4, 5-HT4 receptor (Homo sapiens, UniProt Q13639); experiment: G protein dissociation assay; format: cell-based; settings: FIG. 15
T4 construct: expressed in transfected cells; host or cells: HEK293T

5-HT5A receptor = target: T5, 5-HT5A receptor (Homo sapiens, UniProt P47898); experiment: G protein dissociation assay; format: cell-based
T5 construct: expressed in transfected cells; host or cells: HEK293T
T5 sequence (P47898 whole entry): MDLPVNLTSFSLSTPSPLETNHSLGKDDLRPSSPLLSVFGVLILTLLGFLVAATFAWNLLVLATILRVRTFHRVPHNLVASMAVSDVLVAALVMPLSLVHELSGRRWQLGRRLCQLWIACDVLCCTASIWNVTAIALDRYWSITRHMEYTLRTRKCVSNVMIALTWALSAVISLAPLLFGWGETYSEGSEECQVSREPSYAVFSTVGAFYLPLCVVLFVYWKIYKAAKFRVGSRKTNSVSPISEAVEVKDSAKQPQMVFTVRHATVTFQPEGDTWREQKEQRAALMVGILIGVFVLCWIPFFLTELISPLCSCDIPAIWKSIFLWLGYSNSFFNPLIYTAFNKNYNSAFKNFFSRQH

5-HT7 receptor = target: T6, 5-HT7 receptor (Homo sapiens, UniProt P34969); experiment: G protein dissociation and cAMP accumulation second messenger assays; format: cell-based
T6 construct: expressed in transfected cells; host or cells: HEK293T
T6 sequence (P34969 1-445 isoform P34969-2): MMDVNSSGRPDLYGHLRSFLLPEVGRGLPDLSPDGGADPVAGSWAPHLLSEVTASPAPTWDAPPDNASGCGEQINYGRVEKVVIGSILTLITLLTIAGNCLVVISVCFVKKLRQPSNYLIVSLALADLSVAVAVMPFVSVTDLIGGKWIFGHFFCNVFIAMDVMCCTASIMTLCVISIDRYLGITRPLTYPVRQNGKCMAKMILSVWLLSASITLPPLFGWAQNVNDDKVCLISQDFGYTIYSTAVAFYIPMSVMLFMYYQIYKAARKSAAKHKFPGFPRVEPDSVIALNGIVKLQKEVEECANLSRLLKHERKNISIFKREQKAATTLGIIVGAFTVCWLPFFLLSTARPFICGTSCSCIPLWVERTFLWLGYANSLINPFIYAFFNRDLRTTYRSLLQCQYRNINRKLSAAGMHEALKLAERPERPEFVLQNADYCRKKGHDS

5-HT2A receptor = 5-HT2A receptor (Homo sapiens, UniProt P28223)
Sequence of 5-HT2A receptor (P28223 whole entry): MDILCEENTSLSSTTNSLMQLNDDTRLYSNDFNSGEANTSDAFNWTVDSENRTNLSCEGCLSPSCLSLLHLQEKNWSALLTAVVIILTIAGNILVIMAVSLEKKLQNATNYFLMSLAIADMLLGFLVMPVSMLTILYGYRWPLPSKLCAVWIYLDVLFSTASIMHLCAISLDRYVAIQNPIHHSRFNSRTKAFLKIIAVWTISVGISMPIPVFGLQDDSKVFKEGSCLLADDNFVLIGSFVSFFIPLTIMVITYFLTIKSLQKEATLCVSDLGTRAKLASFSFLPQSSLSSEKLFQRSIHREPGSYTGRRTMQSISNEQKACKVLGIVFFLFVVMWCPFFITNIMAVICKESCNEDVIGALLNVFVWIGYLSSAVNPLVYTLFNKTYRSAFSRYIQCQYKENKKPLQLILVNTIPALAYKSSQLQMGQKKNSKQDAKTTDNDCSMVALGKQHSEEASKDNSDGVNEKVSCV

5-HT6 = 5-HT6 (Homo sapiens, UniProt P50406); experiment: G protein dissociation and cAMP accumulation second messenger assays; format: cell-based; parameters: expressed in transfected cells; host or cells: HEK293T
Sequence of 5-HT6 (P50406 whole entry): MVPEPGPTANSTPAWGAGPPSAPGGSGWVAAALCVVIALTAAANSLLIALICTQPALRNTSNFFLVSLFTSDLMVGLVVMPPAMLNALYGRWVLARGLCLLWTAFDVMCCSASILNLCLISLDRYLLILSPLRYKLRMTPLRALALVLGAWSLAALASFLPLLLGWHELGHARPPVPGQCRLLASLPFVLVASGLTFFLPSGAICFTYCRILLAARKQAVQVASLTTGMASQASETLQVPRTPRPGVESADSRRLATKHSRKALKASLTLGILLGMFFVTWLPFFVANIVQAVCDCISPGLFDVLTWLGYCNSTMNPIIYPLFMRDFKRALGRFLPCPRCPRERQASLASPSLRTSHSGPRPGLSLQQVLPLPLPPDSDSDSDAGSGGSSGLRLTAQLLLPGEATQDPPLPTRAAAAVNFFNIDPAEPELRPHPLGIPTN

[6] = percentage of the reference ligand-induced maximal response, read-out: Emax

Sequence of D2 dopamine receptor (P14416 whole entry): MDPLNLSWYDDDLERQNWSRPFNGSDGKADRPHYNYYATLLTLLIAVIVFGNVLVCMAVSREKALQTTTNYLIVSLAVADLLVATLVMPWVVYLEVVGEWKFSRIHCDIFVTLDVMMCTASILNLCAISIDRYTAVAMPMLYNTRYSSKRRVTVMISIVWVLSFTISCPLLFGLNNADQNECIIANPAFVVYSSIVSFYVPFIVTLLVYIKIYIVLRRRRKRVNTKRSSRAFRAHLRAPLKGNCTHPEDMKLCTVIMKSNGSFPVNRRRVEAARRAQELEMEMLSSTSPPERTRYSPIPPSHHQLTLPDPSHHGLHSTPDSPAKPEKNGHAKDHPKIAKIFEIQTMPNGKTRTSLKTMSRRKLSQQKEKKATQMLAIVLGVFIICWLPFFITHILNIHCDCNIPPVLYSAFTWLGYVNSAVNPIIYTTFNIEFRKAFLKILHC
Sequence of D1 dopamine receptor (P21728 whole entry): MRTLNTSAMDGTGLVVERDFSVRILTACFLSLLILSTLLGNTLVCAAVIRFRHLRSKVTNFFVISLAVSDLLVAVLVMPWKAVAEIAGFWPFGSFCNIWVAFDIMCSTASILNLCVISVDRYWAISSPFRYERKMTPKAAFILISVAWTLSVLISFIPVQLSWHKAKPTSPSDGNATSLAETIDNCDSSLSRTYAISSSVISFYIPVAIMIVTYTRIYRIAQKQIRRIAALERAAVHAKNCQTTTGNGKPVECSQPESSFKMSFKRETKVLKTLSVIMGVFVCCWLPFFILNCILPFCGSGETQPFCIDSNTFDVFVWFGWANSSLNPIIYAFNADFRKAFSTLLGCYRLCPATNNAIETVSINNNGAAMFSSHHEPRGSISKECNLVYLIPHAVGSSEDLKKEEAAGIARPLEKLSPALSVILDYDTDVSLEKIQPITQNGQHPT

Structure (SMILES): CCN(CC)C(=O)[C@@H]1C=C2c3cccc4[nH]c(Br)c(c34)C[C@H]2N(C)C1 [E559, (5R, 8R)-2-Bromo-9,10-didehydro-N,N-diethyl-6-methylergoline-8-carboxamide hemi-D-tartrate]
- EC50 (D1 dopamine receptor): 0.12 nM
- Kb (D1 dopamine receptor): 32.9 nM
- EC50 (D2 dopamine receptor): 0.35 nM
- Emax (D2 dopamine receptor): 77.4%
- EC50 (D3 dopamine receptor): 2.84 nM
- Emax (D3 dopamine receptor): 31.8%
- Kb (D3 dopamine receptor): 7.13 nM
- EC50 (D5 dopamine receptor): 3.75 nM
- Emax (D5 dopamine receptor): 15.6%
- Kb (D5 dopamine receptor): 25.1 nM
- EC50 [1]: 25 nM
- Kb [1]: 56.9 nM
- EC50 [2]: 296 nM
- Emax [2]: 28.8%
- Kb [2]: 5190 nM
- EC50 [3]: 2.96 nM
- EC50 [4]: 0.04 nM
- Emax [4]: 15.6%
- EC50 [5]: 5820 nM
- head-twitch response (HTR) (male C57BL/6J mice; IP, E559 polymorph 0.1-10 mg/kg, LSD 0.1 mg/kg, 60 minutes): negative in HTR at all doses tested; also recorded: did not induce HTR above baseline at any tested dose
- antagonism of 5-HT-mediated activation of 5-HT2B (5-HT2B receptor; Gq dissociation, β-arrestin2 recruitment, calcium flux): antagonism was observed in blocking 5-HT-mediated activation of the 5-HT2B receptor in all three assays
- agonism at 5-HT2B (5-HT2B receptor; Gq dissociation, β-arrestin2 recruitment, calcium flux, listed as E559 polymorph): does not show the agonism seen with LSD; also recorded: inactive as an agonist at the 5-HT2B receptor
- functional activity at 5-HT4 (5-HT4 receptor): lack potent agonist activity at 5-HT4 receptor
- functional activity at 5-HT5A (5-HT5A receptor; FIG. 15): antagonizes this receptor subtype
- functional activity at 5-HT7 (5-HT7 receptor; FIG. 15, FIG. 16A/B, listed as E559 polymorph): act as potent antagonist and inverse agonists; also recorded: exhibits significantly greater inverse agonism than LSD
- β-Arrestin2 recruitment at the 5-HT2A receptor (5-HT2A receptor; percentage of the 5-HT-induced maximal response): weak recruiter of β-Arrestin2
- functional activity at 5-HT6 (5-HT6; FIG. 15, FIG. 16A/B): acts as a very potent partial agonist

Structure (SMILES): CCN(CC)C(=O)[C@@H]1C=C2c3cccc4[nH]cc(c34)C[C@H]2N(C)C1 [LSD, lysergic acid diethylamide, reference compound]
- EC50 (D1 dopamine receptor): 108 nM
- Emax (D1 dopamine receptor): 41.3%
- EC50 (D2 dopamine receptor): 2.17 nM
- Emax (D2 dopamine receptor): 86%
- EC50 (D3 dopamine receptor; agonist mode, read-out: EC50): 7.57 nM
- Emax (D3 dopamine receptor; [6]): 74.5%
- EC50 (D5 dopamine receptor; agonist mode, read-out: EC50): 166 nM
- Emax (D5 dopamine receptor; [6]): 70.7%
- EC50 ([1]; agonist mode, read-out: EC50): 38.5 nM
- Emax ([1]; percentage of the reference ligand-induced maximal response): 24.8%
- EC50 ([2]; agonist mode, read-out: EC50): > 10000 nM
- Emax [2, 6]: 21.2%
- EC50 ([3]; agonist mode, read-out: EC50): 211 nM
- EC50 ([4]; agonist mode, read-out: EC50): 454 nM
- EC50 ([5]; agonist mode, read-out: EC50): > 10000 nM
- head-twitch response (HTR) (male C57BL/6J mice; mouse, in vivo): elicited a strong HTR
- agonism at 5-HT2B (5-HT2B receptor): shows potent agonism of the 5-HT2B receptor; also recorded: an agonist of 5-HT2B
- functional activity at 5-HT4 (5-HT4 receptor): lack potent agonist activity at 5-HT4 receptor
- functional activity at 5-HT5A (5-HT5A receptor): acts as a partial agonist
- functional activity at 5-HT7 (5-HT7 receptor): act as potent antagonist and inverse agonists
- β-Arrestin2 recruitment at the 5-HT2A receptor (5-HT2A receptor): strong recruiters of β-Arrestin2
- functional activity at 5-HT6 (5-HT6): acts as a very potent partial agonist

From patent US12331051B2 (priority 2021, dated 2025)
